Measurements from patent publication US20180369264A1, “COMBINATION OF A CARDIAC STEROID AND AN AKT INHIBITOR FOR THE TREATMENT OF CARDIOVASCULAR DISEASES AND DISORDERS” (YISSUM RESEARCH DEVELOPMENT COMPANY OF THE HEBREW …, priority 2015, published 2018).

Assays:
[1] = tested on: Ca^2+ transients in acc mutant zebrafish isolated adult heart; experiment: Ca^2+ transients in acc mutant zebrafish isolated adult heart; details: for Amplitude (Maximal deflection from baseline) / Area (Area under the transient relative to baseline) / Decay slope (−Δ Fluorescence in the linear phase/sec) / Rate / Rise slope (+Δ Fluorescence in the linear phase/sec): Acc mutant, Ouabain 200 μM, MK-2206 1 nM
Protocol: Spontaneous Ca^2+ transients were measured in isolated hearts from adult zebrafish. The zebrafish were stunned by a blow to the head and the hearts were removed quickly and placed in Dulbecco's Modified Eagle's Medium (DMEM) containing 10% Fetal Bovine Serum (FBS) at room temperature. A total 3-5 hearts were placed in a small Petri dish containing 100 μl Krebs-Ringer's solution (119 mM NaCl, 2.5 mM KCl, 1 mM NaH2PO4, 2.5 mM CaCl2, 1.3 mM MgCl2, 20 mM HEPES and 11 mM D-glucose) with 0.01 mM Fura-2 AM (Biotium, Inc., CA, USA) in DMEM-FBS. Following incubation for 10 min (37° C., 5% CO2), 150 μl of Krebs-Ringer's solution were added to the Petri dish which was incubated for an additional 30 minutes. The dye was removed from the solution by two incubations (10 minutes each, room temperature) in DMEM-FBS solution. Intracellular Ca^2+ transients were measured in stabilizing medium containing 1% low-melt agarose in Krebs-Ringer's solution. The hearts were kept for 30 minutes in the presence of MK-2206 (or saline) and then underwent excitation/emission cycles for 2 minutes at 340 and 380 nm with 510 nm emission using a PTI fluorimetric system (Photon Technology International, Madison, USA). Ouabain was then added and the excitation/emission cycles were monitored for 8 minutes. The Ca^2+ levels are presented as the ratio of 340/380 nm fluorescence emission.

[2] = tested on: primary adult zebrafish cardiomyocytes; experiment: Primary adult zebrafish cardiomyocyte contractility; assay type: cell-based; details: for Amplitude / Contraction Rate (−dv/dt) / Relaxation Rate (+dv/dt): wt, 0.1 nM Oua, 0.5 Hz
Protocol: (§1) Adult (4 to 12-month-old) ventricular myocytes were obtained by enzymatic dissociation (with collagenase II and IV, at 5 mg/ml, each). The zebrafish were stunned by a blow to the head and the brain was pithed. The heart was quickly removed and placed in a small Petri dish containing 10 ml isolation solution: 100 mM NaCl, 10 mM KCl, 1.2 mM KH2PO4, 4 mM MgSO4, 50 mM taurine, 20 mM glucose, and 10 mM Hepes, pH 6.9. The ventricle was cut free from the bulbus and atrium under a binocular. Ventricles from 3 fish were incubated for 45 minutes at 32° C. in a solution containing perfusion buffer (150 mM NaCl, 5.4 mM KCl, 1.5 mM MgSO4, 0.4 mM NaH2PO4, 2 mM CaCl2, 10 mM glucose, and 10 mM Hepes, pH 7.7). Collagenases II and IV (Gibco, NY, USA, 5 mg/ml each) and additional CaCl2 (2.012 mM final concentration) were added. Following Eppendorf centrifugation (1 minute, 250×g at room temperature) the precipitated cells were suspended in 1 ml perfusion buffer for 30 minutes at room temperature before use.
(§2) Cells were transferred to a chamber with a quartz base and examined using an inverted epifluorescence microscope (Nikon Diaphot 200, Japan). The myocytes were field-stimulated (0.5 Hz, 70 V, square waves) and contractions were measured using a video motion edge detector (Crescent Electronics, Sandy, Utah, USA) at the rate of 5 Hz. Cardiomyocyte performance was calculated as the percentage of resting cell length. The slopes of contraction and relaxation (+dL/dt and −dL/dt) were calculated from the linear portions of the changes in contractility. 9 cells per each group were measured. Each of the experiments was repeated at least 3 times with identical results.

[3] = tested on: adult acc mutant primary cardiomyocytes; experiment: acc mutant primary cardiomyocyte contractility; assay type: cell-based, zebrafish; details: for amplitude of contractility: 0.1 nM ouabain or 1 nM MK-2206 alone; for Amplitude / Contraction Rate (−dv/dt) / Relaxation Rate (+dv/dt): Acc mutant, 0.1 nM Oua, 1 nM MK, 20 minutes, 0.5 Hz
Protocol: as §1, §2

[4] = assay type: in vivo, rat; details: 10 day post MI
Protocol: Male Wister rats (150-175 g body weight) were used. Left anterior descending artery (LAD)-ligation was performed in all animals. […] All injected solutions contained 9% DMSO. Heart contractility in-vivo was monitored using echocardiography. At the end of the treatment period, animals were sacrificed and heart and blood samples were harvested for analysis. Blood samples were also collected (from the eye) at baseline and 24 hours post myocardial infarction (MI).
Blood samples were collected from rat eye at baseline and at 24 hrs. Post LAD-ligation. The plasmas of 11 animals were tested for the indicated biomarkers of MI.

LAD-ligated rats = experiment: Heart contractility (echocardiography: SF, HR) in LAD-ligated rats; assay type: in vivo, rat; details: for effect on heart rate: 24 hours, 3 and 6 days post MI; for SF improvement relative to 24 hours post MI: ouabain 0.8 mg/kg/day, MK-2206 12 mg/kg/day, 3, 6 and 10 days post MI
Protocol: Male Wister rats (150-175 g body weight) were used. Left anterior descending artery (LAD)-ligation was performed in all animals. The rats were divided to four groups, each treated with subcutaneous injection with saline (0.5 ml/kg/day), ouabain (0.8-8 mg/kg/day), MK-2206 (12 mg/Kg/day) or a combination of MK-2206 and ouabain. All injected solutions contained 9% DMSO. Heart contractility in-vivo was monitored using echocardiography. At the end of the treatment period, animals were sacrificed and heart and blood samples were harvested for analysis. Blood samples were also collected (from the eye) at baseline and 24 hours post myocardial infarction (MI).
Rats were anesthetized with 10% ketamine, 2% xylazine (0.1 ml/kg) and ventilated with a small animal respirator (Harvard). The heart was exposed via left sternotomy, and the LAD-ligation was induced by placing a 6-0 silk suture around the left anterior descending coronary artery near the atrial auricle. The animals were allowed to recover and treated with 0.5 mg/100 g Tramadol Hydrochloride by subcutaneous injection for post-operative analgesia.
Echocardiograms were performed on rats anesthetized with 2% isoflurane at baseline, at 24 hours, as well as at 3, 6 and 10 days post LAD-ligation, using a VEVO 770 equipped with a 30 MHz linear transthoracic transducer (VisualSonics). Measurements were performed in triplicate using the leading-edge convention for myocardial borders as defined by the […]. Left ventricular, end-diastolic and end-systolic diameters (LVEDD and LVESD), diastolic and systolic interventricular septal diameters (IVSD and IVSS), left ventricular diastolic area (LVEDA), left ventricular systolic area (LVESA), and heart rate (HR) were measured. Shortening fraction (SF) was calculated by the equation: SF (%)=(LVEDD−LVESD)/LVEDD×100. Heart rate was measure by peak intervals of the echocardiography measurements. All measurements were performed by an individual who was blind to the entire experimental protocol and animal treatments.

[5] = pre-incubation 1 nM MK-2206, 0.1 nM ouabain
[6] = Akt inhibitor experiment, 1 nM MK, 20 minutes
[7] = ERK inhibitor experiment, 10 nM PD98059, 20 minutes

Compound | Amplitude (Maximal deflection from baseline) [1] | Area (Area under the transient relative to baseline) [1] | Decay slope (−Δ Fluorescence in the linear phase/sec) [1] | Rate [1] | Rise slope (+Δ Fluorescence in the linear phase/sec) [1] | Amplitude [2, 6] | Contraction Rate (−dv/dt) [2, 6] | Relaxation Rate (+dv/dt) [2, 6] | amplitude of contractility [3] | Amplitude [3] | Contraction Rate (−dv/dt) [3] | Relaxation Rate (+dv/dt) [3] | CPK [4] | Trop-T [4] | effect on heart rate (LAD-ligated rats) | SF improvement relative to 24 hours post MI (LAD-ligated rats) | further results
NC1(c2ccc(-c3nc4ccn5c(=O)[nH]nc5c4cc3-c3ccccc3)cc2)CCC1 [MK-2206] | 1.85 ± 0.05 | 2.79 ± 0.23 | 1.72 ± 0.22 | 25 ± 3 wave/min | 0.51 ± 0.04 | 0.19 ± 0.03 | 0.98 ± 0.19 | 0.87 ± 0.20 | did not affect the amplitude | 0.15 ± 0.02 | 2.61 ± 0.74 | 0.98 ± 0.34 | 363.5 ± 88.59 unit/L | 0.07 ± 0.06 ng/mL | did not affect significantly heart rate | did not result in SF improvement | contractility parameters, inhibitor by itself ([2]; 1 nM MK-2206): did not affect any of the contractility parameters; enhancement of ouabain-induced augmentation: increase in amplitude [2, 5]: 113%; enhancement of ouabain-induced augmentation: increase in contraction rise time [2, 5]: 183%; enhancement of ouabain-induced augmentation: increase in relaxation rise time [2, 5]: 169%
C[C@@H]1O[C@@H](O[C@H]2C[C@@H](O)[C@]3(CO)[C@H]4[C@H](O)C[C@]5(C)[C@@H](C6=CC(=O)OC6)CC[C@]5(O)[C@@H]4CC[C@]3(O)C2)[C@H](O)[C@H](O)[C@H]1O [ouabain, 3-(alpha-L-Rhamnopyranosyloxy)-1beta,5beta,11alpha,14,19-pentahydroxy-5beta-card-20(22)-enolide] | 1.67 ± 0.15 | 2.54 ± 0.56 | 1.92 ± 0.46 | 35 ± 8.4 wave/min | 0.47 ± 0.1 | 0.38 ± 0.05 | 1.84 ± 0.28 | 1.64 ± 0.23 | did not affect the amplitude | 0.14 ± 0.03 | 2.43 ± 0.84 | 0.07 ± 0.05 | 616.6 ± 197.6 unit/L | 0.24 ± 0.17 ng/mL | did not affect significantly heart rate | did not result in SF improvement | changes in Ca^2+ transients parameters ([1]; acc, 200 μM ouabain): did not result in any changes in the Ca^2+ transients parameters; changes in Ca^2+ transient parameters in the presence of Akt inhibitor ([1]; acc, 200 μM ouabain, Akt inhibitor): did not cause any changes in Ca^2+ transient parameters; increase in contractility ([2]; 0.1 nM ouabain): three- to fourfold; Amplitude [2, 7]: 0.53 ± 0.1; Contraction Rate (−dv/dt) [2, 7]: 3.65 ± 0.38; Relaxation Rate (+dv/dt) [2, 7]: 2.92 ± 0.37; increase in the contraction amplitude ([3]; ouabain in the presence of Akt inhibitor): 67%; effect on shortening fraction (SF) following LAD-ligation (LAD-ligated rats; 0.8 mg/kg/day, by itself): did not increase SF; effect on shortening fraction (SF) following LAD-ligation (LAD-ligated rats; 8 mg/kg/day): significantly increased the SF of the heart starting at the 3rd day of treatment
